Data published in US8492427B2, “Isoindolones derivatives as MEK kinase inhibitors and methods of use” (Genentech, Inc., priority 2008, dated 2013).

Experiments:
[1] = molecular target: constitutively activated human mutant MEK1 (Homo sapiens, UniProt Q02750); assay: MEK Assay (MEK Activity Assay); type: biochemical; conditions: 15 nM MEK1, 50 μM ATP, GST-ERK1 substrate, 30 minutes, HTRF; read-out: IC50 in the MEK activity assay of Example 1
Procedure: Constitutively activated human mutant MEK1 expressed in insect cells is used as source of enzymatic activity at a final concentration in the kinase assay of 15 nM.
The assay is carried out for 30 minutes in the presence of 50 μM ATP using recombinant GST-ERK1 produced in E. Coli as substrate. Phosphorylation of the substrate is detected and quantified using HTRF reagents supplied by Cisbio. These consist of an anti-GST antibody conjugated to allophycocyanin (XL665) and an anti-phospho (Thr202/Tyr204) ERK antibody conjugated to europium-cryptate. These are used at a final concentration of 4 μg/ml and 0.84 μg/ml respectively. The anti-phospho antibody recognises ERK1 dually phosphorylated on Thr202 and Tyr204. When both antibodies are bound to ERK1 (i.e. when the substrate is phosphorylated), energy transfer from the cryptate to the allophycocyanin occurs following excitation at 340 nm, resulting in fluorescence being emitted that is proportional to the amount of phosphorylated substrate produced. Fluorescence is detected using a multiwell fluorimeter.
Compounds are diluted in DMSO prior to addition to assay buffer and the final DMSO concentration in the assay is 1%.
The IC50 is defined as the concentration at which a given compound achieves 50% inhibition of control. IC50 values are calculated using the XLfit software package (version 2.0.5).

[2] = tested on: HCT116 human colorectal carcinoma; assay: Cell Proliferation Assay, HCT116; type: cell-based; conditions: HCT-116, HCT116 cell line, 72 h, CellTiter-Glo
Procedure: (§1) Compounds are tested in a cell proliferation assay using the following cell lines:
(§2) Both cell lines are maintained in DMEM/F12 (1:1) media (Gibco) supplemented with 10% FCS at 37° C. in a 5% CO2 humidified incubator.
(§3) Cells are seeded in 96-well plates at 2,000 cells/well and after 24 hours they are exposed to different concentrations of compounds in 0.83% DMSO. Cells are grown for a further 72 h, and an equal volume of CellTiter-Glo reagent (Promega) is added to each well. This lyses the cells and generates a luminescent signal proportional to the amount of ATP released (and therefore proportional to the number of cells in the well) that can be detected using a multi-well luminometer.
(§4) The EC50 is defined as the concentration at which a given compound achieves 50% inhibition of control. IC50 values are calculated using the XLfit software package (version 2.0.5).

[3] = tested on: A375 human malignant melanoma; assay: Cell Proliferation Assay, A375; type: cell-based; conditions: A-375, A375 cell line, 72 h, CellTiter-Glo
Procedure: as §1, §2, §3, §4

[4] = tested on: phospho-ERK in HCT116 cell line; assay: Phospho-ERK Cell-Based Assay, HCT116; conditions: Homo sapiens, HCT-116, exposure 2 h or 24 h
Procedure: Compounds are tested in a cell-based phospho-ERK ELISA using the following cell lines:
as §2
Cells are seeded in 96-well plates at 2,000 cells/well and after 24 h they are exposed to different concentrations of compounds in 0.83% DMSO. Cells are grown for a further 2 h or 24 h, fixed with formaldehyde (2% final) and permeabilised with methanol. Following blocking with TBST-3% BSA, fixed cells are incubated with primary antibody (anti-phospho ERK from rabbit) over-night at 4° C. Cells are incubated with Propidium Iodide (DNA fluorescent dye) and detection of cellular p-ERK is performed using an anti-rabbit secondary antibody conjugated to the fluorescent Alexa Fluor 488 dye (Molecular probes). The fluorescence is analysed using the Acumen Explorer (TTP Labtech), a laser-scanning microplate cytometer, and the Alexa Fluor 488 signal is normalised to the PI signal (proportional to cell number).
The EC50 is defined as the concentration at which a given compound achieves a signal half way between the baseline and the maximum response. EC50 values are calculated using the XLfit software package (version 2.0.5).

constitutively activated human mutant MEK1, sequence (Q02750 whole entry S218D/S222D, form open): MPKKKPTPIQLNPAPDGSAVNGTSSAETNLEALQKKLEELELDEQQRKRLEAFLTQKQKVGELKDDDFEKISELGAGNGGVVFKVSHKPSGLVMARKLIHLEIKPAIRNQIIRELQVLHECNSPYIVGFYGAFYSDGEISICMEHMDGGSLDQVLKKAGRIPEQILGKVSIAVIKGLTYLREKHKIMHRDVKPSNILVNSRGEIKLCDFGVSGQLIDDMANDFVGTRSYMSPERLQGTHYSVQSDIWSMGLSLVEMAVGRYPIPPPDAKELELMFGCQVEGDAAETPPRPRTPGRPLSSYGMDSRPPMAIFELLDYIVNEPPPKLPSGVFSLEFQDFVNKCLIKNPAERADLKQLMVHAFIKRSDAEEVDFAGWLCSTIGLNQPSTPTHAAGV

`O=C1NCc2cc(C(=O)NOCCO)c(Nc3ccc(I)cc3F)cc21` [Example 5, 6-(2-Fluoro-4-iodo-phenylamino)-1-oxo-2,3-dihydro-1H-isoindole-5-carboxylic acid (2-hydroxy-ethoxy)-amide] was tested. Which IC50 [1] did it give?
Its IC50 is under 100 nM.

What about the EC50 [2] of the same compound?
Its EC50 is under 500 nM.

And the EC50 [3]?
Its EC50 is under 500 nM.

What about the EC50 [4] of the same compound?
Its EC50 is under 500 nM.
